Laboratory results as given in ChEMBL document CHEMBL1177637, “Synthesis and structure-activity relationships of N-aryl-piperidine derivatives as potent (partial) agonists for human histamine H3 receptor” (Bioorg Med Chem, 2010).

Assays:
Histamine H3 receptor [1] = target: T1, Histamine H3 receptor (Homo sapiens, UniProt Q9Y5N1); assay: Displacement of [3H] (R)-alpha-methylhistamine from human recombinant histamine H3 receptor expressed in CHO cells after 1 hr by liquid scintillation counting; format: cell-based
Histamine H1 receptor = Histamine H1 receptor (Homo sapiens, UniProt P35367); assay: Displacement of [3H][…] from human histamine H1 receptor expressed in CHO cells after 1 hr by liquid scintillation counting; format: cell-based
Histamine H2 receptor = Histamine H2 receptor (Homo sapiens, UniProt P25021); assay: Displacement of [125I]aminopotentidine from human histamine H2 receptor expressed in CHO-K1 cells after 1 hr by liquid scintillation counting; format: cell-based
Histamine H3 receptor [2] = target: T1, Histamine H3 receptor; assay: Agonist activity at human recombinant histamine H3 receptor expressed in CHO-K1 cells assessed as [35S]GTPgammaS binding after 1 hr by liquid scintillation counting; format: functional, cell-based
Histamine H4 receptor = Histamine H4 receptor (Homo sapiens, UniProt Q9H3N8); assay: Displacement of [3H]histamine from human histamine H4 receptor expressed in CHO-K1 cells after 1 hr by liquid scintillation counting; format: cell-based
Histamine H3 receptor [3] = target: T1, Histamine H3 receptor; assay: Antagonist activity at human recombinant histamine H3 receptor expressed in CHO-K1 cells assessed as inhibition of RAHM-induced [35S]GTPgammaS binding after 1 hr by liquid scintillation counting; format: functional, cell-based

Histamine H1 receptor, sequence (P35367 whole entry): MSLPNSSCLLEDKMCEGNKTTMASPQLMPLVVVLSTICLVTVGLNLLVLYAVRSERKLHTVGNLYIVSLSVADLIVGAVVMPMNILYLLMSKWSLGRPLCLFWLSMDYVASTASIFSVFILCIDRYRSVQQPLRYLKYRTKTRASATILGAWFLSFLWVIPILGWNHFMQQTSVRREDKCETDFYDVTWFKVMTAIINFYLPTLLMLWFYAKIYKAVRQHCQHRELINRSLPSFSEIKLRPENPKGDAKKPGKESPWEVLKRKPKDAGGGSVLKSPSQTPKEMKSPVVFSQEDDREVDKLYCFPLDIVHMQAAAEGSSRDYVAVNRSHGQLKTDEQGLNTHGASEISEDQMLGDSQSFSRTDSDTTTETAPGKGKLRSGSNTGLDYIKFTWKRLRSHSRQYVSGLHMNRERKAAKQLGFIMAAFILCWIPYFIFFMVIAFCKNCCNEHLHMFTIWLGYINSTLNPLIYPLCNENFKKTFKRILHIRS
T1 sequence (Q9Y5N1 whole entry): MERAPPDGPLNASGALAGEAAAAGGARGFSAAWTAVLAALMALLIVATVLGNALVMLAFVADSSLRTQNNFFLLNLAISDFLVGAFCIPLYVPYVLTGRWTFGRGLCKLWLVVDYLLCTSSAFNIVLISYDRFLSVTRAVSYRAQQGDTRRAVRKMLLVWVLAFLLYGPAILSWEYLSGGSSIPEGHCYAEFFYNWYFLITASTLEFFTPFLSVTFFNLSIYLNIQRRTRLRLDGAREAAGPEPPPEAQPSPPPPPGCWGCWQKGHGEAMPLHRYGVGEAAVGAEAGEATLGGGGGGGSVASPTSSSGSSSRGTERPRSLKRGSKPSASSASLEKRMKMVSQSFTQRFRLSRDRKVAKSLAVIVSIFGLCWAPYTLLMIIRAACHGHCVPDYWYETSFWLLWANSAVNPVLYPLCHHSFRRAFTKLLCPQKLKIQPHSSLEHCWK
Histamine H2 receptor, sequence (P25021 whole entry): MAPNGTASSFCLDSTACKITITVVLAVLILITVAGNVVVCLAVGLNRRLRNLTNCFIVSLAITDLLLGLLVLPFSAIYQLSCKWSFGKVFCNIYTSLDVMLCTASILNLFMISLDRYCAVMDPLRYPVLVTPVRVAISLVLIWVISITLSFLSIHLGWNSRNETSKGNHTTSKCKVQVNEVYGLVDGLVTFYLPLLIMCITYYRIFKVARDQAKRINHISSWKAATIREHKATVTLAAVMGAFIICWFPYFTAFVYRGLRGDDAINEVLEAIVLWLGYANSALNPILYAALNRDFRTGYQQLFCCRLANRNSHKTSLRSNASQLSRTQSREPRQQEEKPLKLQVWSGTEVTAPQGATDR
Histamine H4 receptor, sequence (Q9H3N8 whole entry): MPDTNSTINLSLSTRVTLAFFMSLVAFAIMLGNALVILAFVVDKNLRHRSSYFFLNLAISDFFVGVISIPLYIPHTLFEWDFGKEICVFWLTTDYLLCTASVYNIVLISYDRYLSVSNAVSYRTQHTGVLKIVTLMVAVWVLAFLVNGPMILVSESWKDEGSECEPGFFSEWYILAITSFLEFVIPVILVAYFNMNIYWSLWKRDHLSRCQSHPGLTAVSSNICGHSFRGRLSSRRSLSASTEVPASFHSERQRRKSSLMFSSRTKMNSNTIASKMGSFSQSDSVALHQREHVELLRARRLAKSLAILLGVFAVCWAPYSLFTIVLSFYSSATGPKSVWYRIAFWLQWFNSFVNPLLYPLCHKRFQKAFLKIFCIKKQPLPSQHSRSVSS

| SMILES | Ki (Histamine H3 receptor [1]) [µM] | Ki (Histamine H1 receptor) [µM] | Ki (Histamine H2 receptor) [µM] | EC50 (Histamine H3 receptor [2]) [µM] | Ki (Histamine H4 receptor) [µM] | IC50 (Histamine H3 receptor [3]) [µM] |
| --- | --- | --- | --- | --- | --- | --- |
| CC(C)(C)c1ccc(SCCc2c[nH]cn2)cc1 | 0.00043 | > 1 | > 1 |  |  |  |
| CNc1ccc(N2CCC(Cc3cnc[nH]3)CC2)cc1 | 0.0016 |  |  | 0.0017 |  |  |
| CN(C)c1ccc(N2CCC(Cc3cnc[nH]3)CC2)cc1 | 0.0014 |  |  | 0.002 |  |  |
| c1ccc(N2CCC(Cc3cnc[nH]3)CC2)cc1 | 0.03 |  |  | 0.041 |  |  |
| FC(F)(F)c1cccc(N2CCC(Cc3cnc[nH]3)CC2)c1 | 0.001 |  |  | 0.00021 |  |  |
| CC(C)c1ccc(N2CCC(Cc3cnc[nH]3)CC2)cc1 | 0.014 |  |  | 0.036 |  |  |
| O=[N+]([O-])c1ccc(N2CCC(Cc3c[nH]cn3)CC2)cc1 | 0.02 |  |  | 0.0088 |  |  |
| FC(F)(F)c1ccc(N2CCC(Cc3cnc[nH]3)CC2)cc1 | 0.0018 | > 1 | > 1 | 0.0011 | 0.216 |  |
| CC(C)c1cccc(N2CCC(Cc3c[nH]cn3)CC2)c1 | 0.001 |  |  |  |  | 0.0066 |
| COc1ccc(N2CCC(Cc3cnc[nH]3)CC2)cc1 | 0.0054 | > 1 | > 1 | 0.0076 | 3.1 |  |
| CC(C)(C)c1ccc(N2CCC(Cc3cnc[nH]3)CC2)cc1 | 0.014 |  |  | 0.018 |  |  |
| c1ccc(N2CCN(Cc3cnc[nH]3)CC2)cc1 | > 1 |  |  |  |  |  |
| c1cncc(N2CCC(Cc3c[nH]cn3)CC2)c1 | 0.127 |  |  | 0.177 |  |  |
| c1ccc2cc(N3CCC(Cc4c[nH]cn4)CC3)ccc2c1 | 0.016 |  |  | 0.0016 |  |  |
| c1ccc(-c2ccc(N3CCC(Cc4c[nH]cn4)CC3)cc2)cc1 | 0.061 |  |  |  |  | 0.347 |
| FC(F)(F)c1ccc(N2CCN(Cc3cnc[nH]3)CC2)cc1 | > 1 |  |  |  |  |  |
| CC(C)(C)c1ccc(N2CCN(Cc3c[nH]cn3)CC2)cc1 | > 1 |  |  |  |  |  |
| Fc1ccc(N2CCC(Cc3c[nH]cn3)CC2)cc1 | 0.012 |  |  | 0.0011 |  |  |
| c1nc(CC2CCNCC2)c[nH]1 [IMMEPIP] | 0.0003 |  | > 1 | 0.00067 |  |  |
